# According to patent US12459974B2, “Bicyclic peptide ligands specific for Nectin-4” (priority 2018, dated 2025):
# *1 amine or outer side, *2 acyl side, *3 side chain or, on linkers, in order; H or OH if unused. Where a SMILES comes first, the peptide text is derived from it. Bridges are numbered along the chain shown (N, C = ends). Roman numbers before positions name the chains, in order. [ ]: non-standard residue; d: D form. The star is where a group is joined. ξ: configuration not given here. TATA = O=C(CC[*:1])N1CN(C(=O)CC[*:2])CN(C(=O)CC[*:3])C1; Dolaproine = CO[C@@H]([C@@H]1CCCN1)[C@@H](C)C(=O)O; X1 = CC[C@H](C)C(C(CC(=O)[*:2])OC)N(C)[*:1]; 1Nal = N[C@@H](Cc1cccc2ccccc12)C(=O)O; X3 = O=C(CCCC(=O)[*:2])NCCC(=O)[*:1]; PABC = O=C(OCc1ccc(N[*:1])cc1)[*:2]; Hyp = O=C(O)[C@@H]1C[C@@H](O)CN1; hArg = N=C(N)NCCCC[C@H](N)C(=O)O; Cit = NC(=O)NCCC[C@H](N)C(=O)O; X2 = CC(N*)[C@@H](O)c1ccccc1; ξNMeV = CNC(C(=O)O)C(C)C; ξV = CC(C)C(N)C(=O)O; Sar = CNCC(=O)O
# How the values were obtained:
# NCI-H526 xenograft = assay: Example 9.6: in vivo efficacy in NCI-H526 xenograft in Balb/c nude mice; details: for Tumor volume: iv
# Procedure: The major endpoint was to see if the tumor growth could be delayed or mice could be cured. Tumor volume was measured three times weekly in two dimensions using a caliper, and the volume was expressed in mm^3 using the formula: V=0.5 a×b^2 where a and b are the long and short diameters of the tumor, respectively. The tumor size was then used for calculations of T/C value. The T/C value (in percent) is an indication of antitumor effectiveness; T and C are the mean volumes of the treated and control groups, respectively, on a given day. TGI was calculated for each group using the formula: TGI (%)=[1−(Ti−T0)/(Vi−V0)]×100; Ti is the average tumor volume of a treatment group on a given day, T0 is the average tumor volume of the treatment group on the day of treatment start, Vi is the average tumor volume of the vehicle control group on the same day with Ti, and V0 is the average tumor volume of the vehicle group on the day of treatment start.
# A one-way ANOVA was performed to compare tumor volume among groups, and when a significant F-statistics (a ratio of treatment variance to the error variance) was obtained, comparisons between groups were carried out with Games-Howell test. All data were analyzed using GraphPad Prism 5.0. P<0.05 was considered to be statistically significant.
# • Species: Mus Musculus • Strain: Balb/c nude • Age: 6-8 weeks • Sex: female • Body weight: 18-22 g • Number of animals: 21 mice plus spare 3.1.2.
# The NCI-H526 cells were maintained in medium supplemented with 10% heat inactivated fetal bovine serum at 37° C. in an atmosphere of 5% CO2 in air. The tumor cells were routinely subcultured twice weekly. The cells growing in an exponential growth phase were harvested and counted for tumor inoculation.
# Each mouse was inoculated subcutaneously at the right flank with NCI-H526 tumor cells (5.0×10^6 in 0.2 ml of PBS for tumor development. 21 animals were randomized when the average tumor volume reached 181 mm^3. The test article administration and the animal numbers in each group were shown in the experimental design table.
# Tumor growth inhibition rate for test articles in the NCI-H526 xenograft model was calculated based on tumor volume measurements at day 14 after the start of the treatment.
# MDA-MB-468 xenograft = assay: Example 4: in vivo efficacy in MDA-MB-468 xenograft (breast cancer model) in Balb/c nude mice; design: species or system Mus Musculus
compound,measurement,setting,value
"CC[C@H](C)C(C(CC(=O)N1CCC[C@H]1[C@H](OC)[C@@H](C)C(=O)NC(C)[C@@H](O)c1ccccc1)OC)N(C)C(=O)[C@@H](NC(=O)C(C(C)C)N(C)C(=O)OCc1ccc(NC(=O)[C@H](CCCNC(N)=O)NC(=O)C(NC(=O)CCCC(=O)NCCC(=O)N(C)CC(=O)N(C)CC(=O)N(C)CC(=O)N(C)CC(=O)N(C)CC(=O)N(C)CC(=O)N(C)CC(=O)N(C)CC(=O)N(C)CC(=O)N(C)CC(=O)N[C@H]2CSCCC(=O)N3CN4CN(C3)C(=O)CCSC[C@H](NC(=O)[C@@H](CC(=O)O)NC(=O)[C@H](Cc3cccc5ccccc35)NC(=O)[C@@H]3CCCN3C2=O)C(=O)N[C@@H](CCSC)C(=O)N[C@@H](CCCCNC(=N)N)C(=O)N[C@@H](CC(=O)O)C(=O)N[C@@H](Cc2c[nH]c3ccccc23)C(=O)N[C@@H](CO)C(=O)N[C@@H]([C@@H](C)O)C(=O)N2CCC[C@H]2C(=O)N2C[C@H](O)C[C@H]2C(=O)N[C@@H](Cc2c[nH]c3ccccc23)C(=O)N[C@H](C(N)=O)CSCCC4=O)C(C)C)cc1)C(C)C (stereo partly drawn) [BCY8245, MMAE-PABC-Cit-Val-Glutaryl-BCY8234] (I: [Sar][Sar][Sar][Sar][Sar][Sar][Sar][Sar][Sar][Sar]CP[1Nal][dD]CM[hArg]DWSTP[Hyp]WC-NH2 / II: [ξV][Cit][PABC][ξNMeV]V[X1][Dolaproine]-X2; linker I:11-I:15-I:25 via TATA; linker I:N-II:N via X3)",TGI,"NCI-H526 xenograft; 3 mg/kg biw, day 14",21.6%
same,Tumor volume (TV),"NCI-H526 xenograft; 3 mg/kg biw, day 14",1109 mm^3
same,TGI,"NCI-H526 xenograft; 3 mg/kg qw, day 14",13.4%
same,Tumor volume (TV),"NCI-H526 xenograft; 3 mg/kg qw, day 14",1205 mm^3
same,animal bodyweight loss,NCI-H526 xenograft; 5 mg/kg biw,over 10%
same,TGI,"NCI-H526 xenograft; 5 mg/kg qw, day 14",75.0%
same,Tumor volume (TV),"NCI-H526 xenograft; 5 mg/kg qw, day 14",476 mm^3
same,Tumor volume,"NCI-H526 xenograft; 3 mpk, biw, day 0 after the start of treatment",182 mm^3
same,Tumor volume,"NCI-H526 xenograft; 3 mpk, biw, day 2",232 mm^3
same,Tumor volume,"NCI-H526 xenograft; 3 mpk, biw, day 4",308 mm^3
same,Tumor volume,"NCI-H526 xenograft; 3 mpk, biw, day 7",440 mm^3
same,Tumor volume,"NCI-H526 xenograft; 3 mpk, biw, day 9",530 mm^3
same,Tumor volume,"NCI-H526 xenograft; 3 mpk, biw, day 12",810 mm^3
same,Tumor volume,"NCI-H526 xenograft; 3 mpk, biw, day 14",1109 mm^3
same,T/C,"NCI-H526 xenograft; 3 mpk, biw, day 14",81.3%
same,TGI,"NCI-H526 xenograft; 3 mpk, biw, day 14",21.6%
same,Tumor Volume (Mean ± SEM),"NCI-H526 xenograft; 3 mpk, biw, day 14",1109 ± 250 mm^3
same,Tumor volume,"NCI-H526 xenograft; 3 mpk, qw, day 0 after the start of treatment",180 mm^3
same,Tumor volume,"NCI-H526 xenograft; 3 mpk, qw, day 2",256 mm^3
same,Tumor volume,"NCI-H526 xenograft; 3 mpk, qw, day 4",403 mm^3
same,Tumor volume,"NCI-H526 xenograft; 3 mpk, qw, day 7",545 mm^3
same,Tumor volume,"NCI-H526 xenograft; 3 mpk, qw, day 9",657 mm^3
same,Tumor volume,"NCI-H526 xenograft; 3 mpk, qw, day 12",1019 mm^3
same,Tumor volume,"NCI-H526 xenograft; 3 mpk, qw, day 14",1205 mm^3
same,T/C,"NCI-H526 xenograft; 3 mpk, qw, day 14",88.3%
same,TGI,"NCI-H526 xenograft; 3 mpk, qw, day 14",13.4%
same,Tumor Volume (Mean ± SEM),"NCI-H526 xenograft; 3 mpk, qw, day 14",1205 ± 79 mm^3
same,Tumor volume,"NCI-H526 xenograft; 5 mpk, qw, day 0 after the start of treatment",180 mm^3
same,Tumor volume,"NCI-H526 xenograft; 5 mpk, qw, day 2",209 mm^3
same,Tumor volume,"NCI-H526 xenograft; 5 mpk, qw, day 4",236 mm^3
same,Tumor volume,"NCI-H526 xenograft; 5 mpk, qw, day 7",383 mm^3
same,Tumor volume,"NCI-H526 xenograft; 5 mpk, qw, day 9",375 mm^3
same,Tumor volume,"NCI-H526 xenograft; 5 mpk, qw, day 12",365 mm^3
same,Tumor volume,"NCI-H526 xenograft; 5 mpk, qw, day 14",476 mm^3
same,T/C,"NCI-H526 xenograft; 5 mpk, qw, day 14",34.9%
same,TGI,"NCI-H526 xenograft; 5 mpk, qw, day 14",75.0%
same,Tumor Volume (Mean ± SEM),"NCI-H526 xenograft; 5 mpk, qw, day 14",476 ± 103 mm^3
same,tumor response (in words),"NCI-H526 xenograft; mouse, in vivo",tumor growth is restrained by BCY8245 but the tumor does not undergo regression
same,TGI,"MDA-MB-468 xenograft; 3 mg/kg biw, day 21",169.8%
same,Tumor volume (TV),"MDA-MB-468 xenograft; 3 mg/kg biw, day 21",22 mm^3
same,TGI,"MDA-MB-468 xenograft; 3 mg/kg qw, day 21",144.2%
same,Tumor volume (TV),"MDA-MB-468 xenograft; 3 mg/kg qw, day 21",85 mm^3
same,TGI,"MDA-MB-468 xenograft; 5 mg/kg qw, day 21",168.4%
same,Tumor volume (TV),"MDA-MB-468 xenograft; 5 mg/kg qw, day 21",29 mm^3
same,Tumor volume,"MDA-MB-468 xenograft; 3 mpk, biw, iv, day 0 after start of treatment",195 ± 33 mm^3
same,Tumor volume,"MDA-MB-468 xenograft; 3 mpk, biw, iv, day 2",193 ± 27 mm^3
same,Tumor volume,"MDA-MB-468 xenograft; 3 mpk, biw, iv, day 4",154 ± 20 mm^3
same,Tumor volume,"MDA-MB-468 xenograft; 3 mpk, biw, iv, day 7",103 ± 20 mm^3
same,Tumor volume,"MDA-MB-468 xenograft; 3 mpk, biw, iv, day 9",83 ± 16 mm^3
same,Tumor volume,"MDA-MB-468 xenograft; 3 mpk, biw, iv, day 11",67 ± 14 mm^3
same,Tumor volume,"MDA-MB-468 xenograft; 3 mpk, biw, iv, day 14",49 ± 11 mm^3
same,Tumor volume,"MDA-MB-468 xenograft; 3 mpk, biw, iv, day 16",45 ± 14 mm^3
same,Tumor volume,"MDA-MB-468 xenograft; 3 mpk, biw, iv, day 18",32 ± 12 mm^3
same,Tumor volume,"MDA-MB-468 xenograft; 3 mpk, biw, iv, day 21",22 ± 4 mm^3
same,T/C,"MDA-MB-468 xenograft; 3 mpk, biw, day 21",4.9%
same,TGI,"MDA-MB-468 xenograft; 3 mpk, biw, day 21",169.8%
same,Tumor volume,"MDA-MB-468 xenograft; 3 mpk, biw, day 21, Mean ± SEM (Table 22)",22 ± 4 mm^3
same,Tumor volume,"MDA-MB-468 xenograft; 3 mpk, qw, iv, day 0 after start of treatment",194 ± 12 mm^3
same,Tumor volume,"MDA-MB-468 xenograft; 3 mpk, qw, iv, day 2",192 ± 26 mm^3
same,Tumor volume,"MDA-MB-468 xenograft; 3 mpk, qw, iv, day 4",184 ± 20 mm^3
same,Tumor volume,"MDA-MB-468 xenograft; 3 mpk, qw, iv, day 7",131 ± 20 mm^3
same,Tumor volume,"MDA-MB-468 xenograft; 3 mpk, qw, iv, day 9",113 ± 17 mm^3
same,Tumor volume,"MDA-MB-468 xenograft; 3 mpk, qw, iv, day 11",104 ± 13 mm^3
same,Tumor volume,"MDA-MB-468 xenograft; 3 mpk, qw, iv, day 14",94 ± 25 mm^3
same,Tumor volume,"MDA-MB-468 xenograft; 3 mpk, qw, iv, day 16",81 ± 23 mm^3
same,Tumor volume,"MDA-MB-468 xenograft; 3 mpk, qw, iv, day 18",87 ± 23 mm^3
same,Tumor volume,"MDA-MB-468 xenograft; 3 mpk, qw, iv, day 21",85 ± 31 mm^3
same,T/C,"MDA-MB-468 xenograft; 3 mpk, qw, day 21",18.9%
same,TGI,"MDA-MB-468 xenograft; 3 mpk, qw, day 21",144.2%
same,Tumor volume,"MDA-MB-468 xenograft; 3 mpk, qw, day 21, Mean ± SEM (Table 22)",85 ± 31 mm^3
same,Tumor volume,"MDA-MB-468 xenograft; 5 mpk, qw, dosing suspended from day 21, day 23",35 ± 5 mm^3
